Experimental data taken from PMC7269057, “Synthesis of calix[4]azacrown substituted sulphonamides with antioxidant, acetylcholinesterase, butyrylcholinesterase, tyrosinase and carbonic anhydrase inhibitory action” (Journal of Enzyme Inhibition and Medicinal Chemistry, 2020).
Like-named read-outs stand apart in the source and are kept apart here.

Experiments:
[1] = DPPH radical scavenging assay; details: 30 min in the dark, 517 nm; mean ± SD of three measurements; read-out: IC50 DPPH Free Radical
Experimental: The DPPH (2,2-diphenyl-1-picrylhydrazyl) radical scavenging activity of the synthesised compounds was determined by a spectrophotometric method based on the reduction of an ethanol solution of DPPH[33]^,[34]. 2, 5, 10, 20 µL of 1 mM stock solution of each compound was completed to 40 µL with the DMSO and mixed with 160 µL of 0.1 mM of DPPH free radical solution. The mixture was led to stand for 30 min in the dark and the absorbance was then measured at 517 nm against a blank. Inhibition of free radical, DPPH, in percent (I %), was calculated according to the formula: I %=(Acontrol−Asample)/Acontrol×100 where Acontrol is the absorbance of the control reaction (containing all reagents except for the tested compounds), and Asample is the absorbance of the test compounds. Tests were carried out in triplicate. BHA and BHT were used as positive control.

[2] = ABTS cation radical decolorisation assay; details: 6 min at room temperature, 734 nm; mean ± SD of three measurements
Experimental: The percent inhibition of decolorisation of ABTS [2,2′-azino-bis(3-ethylbenzothiazoline-6-sulfonic acid)] cation radical is obtained as a function of time and concentration and evaluated by comparison with the BHT and BHA compounds used as standard[35]^,[36]. The tested compounds at different concentrations are added to each well and 160 µL of 7 mM ABTS solution is added. After 6 min at room temperature, the absorbances were measured at 734 nm. ABTS cation radical decolorisation activities were determined by using the equation below: %Inhibition = (Acontrol−Asample)/Acontrol × 100 where A is the absorbance. Tests were carried out in triplicate. BHA and BHT were used as positive control.

hCA II = target: T1, hCA II (Homo sapiens, UniProt P00918); assay: CA inhibition, stopped flow CO2 hydrase assay; assay type: biochemical; details: mean from 3 assays, errors ± 5–10%
T1 construct: made in house
Experimental: (§1) An SX.18 MV-R Applied Photophysics (Oxford, UK) stopped-flow instrument has been used to assay the inhibition of various CA isozymes. Phenol Red (at a concentration of 0.2 mM) has been used as an indicator, working at the absorbance maximum of 557 nm, with 10 mM Hepes (pH 7.4) as a buffer, 0.1 M Na2SO4 or NaClO4 (for maintaining constant the ionic strength; […]. Stock solutions of inhibitors were prepared at a concentration of 10 mM (in DMSO-water 1:1, v/v) and dilutions up to 0.01 nM done with the assay buffer mentioned above. At least 7 different inhibitor concentrations have been used for measuring the inhibition constant. Inhibitor and enzyme solutions were pre-incubated together for 10 min at room temperature before assay, to allow for the formation of the E-I complex. Triplicate experiments were done for each inhibitor concentration, and the value reported throughout the paper is the mean of such results. The inhibition constants were obtained by nonlinear least-squares methods using the Cheng-Prusoff equation, as reported earlier, and represent the mean from at least three different determinations1[27–32]. All CA isozymes used here were recombinant proteins obtained as reported earlier by our group.

hCA XII = target: T2, hCA XII (Homo sapiens, UniProt O43570); assay: CA inhibition, stopped flow CO2 hydrase assay; assay type: biochemical; details: mean from 3 assays, errors ± 5–10%
T2 construct: made in house
Experimental: as §1

Metal chelating activity = details: ferrous chloride/ferrozine, 562 nm; mean ± SD of three measurements; read-out: IC50 Metal Chelate
Experimental: The chelating ability of synthesised compounds was examined according to the method of Dinis et al.[37]. The tested compounds at different concentrations were added to each well and 4 µL of 2 mM ferrous (II) chloride was added. Then 8 µL of 5 mM ferrozine was added and the reaction was started. After 10 min at room temperature, the absorbance was measured at 562 nm against a blank. The results were expressed as a percentage of inhibition of the ferrozine-Fe^2+ complex formation. The percentage inhibition of the ferrozine -Fe^2+ complex formation was calculated using the formula given below: Chelating ability (%)=(Acontrol−Asample)/Acontrol×100 where A is the absorbance. Tests were carried out in triplicate. EDTA was used as a positive control.

Tyrosinase from mushroom = assay: Anti-tyrosinase activity (diphenolase, L-DOPA substrate); assay type: biochemical; details: at 200 µM
Experimental: Anti-tyrosinase activity of the compounds was performed according to the method designed by Hearing and Jimenez[39]. Firstly, the inhibition of diphenolase function of the compounds was evaluated and L-DOPA was used as substrate. Tyrosinase from mushroom (E.C. 1.14.18.1) (30 U, 28 nM) was dissolved in Na-phosphate buffer (pH = 6.8, […]) and the compounds were added to the solution for pre-incubation at room temperature for ten minutes. After incubation, 0.5 mM L-DOPA was added to the mixture and the change in absorbance was measured at 475 nm at 37 °C. For positive control, kojic acid was used. The following formula was used to calculate the percentage of all enzyme inhibitions: Inhibition (%) = (Acontrol–Asample)/Acontrol × 100

hCA VII = target: T3, hCA VII (Homo sapiens, UniProt P43166); assay: biochemical; details: stopped flow CO2 hydrase assay; mean from 3 assays, errors ± 5–10%
T3 construct: made in house
Source text: (§2) An SX.18 MV-R Applied Photophysics (Oxford, UK) stopped-flow instrument has been used to assay the inhibition of various CA isozymes[26]. […] The inhibition constants were obtained by nonlinear least-squares methods using the Cheng-Prusoff equation, as reported earlier, and represent the mean from at least three different determinations1[27–32].

hCA IV = target: T4, hCA IV (Homo sapiens, UniProt P22748); assay: biochemical; details: stopped flow CO2 hydrase assay; mean from 3 assays, errors ± 5–10%
T4 construct: made in house
Source text: as §2

hCA I = target: T5, hCA I (Homo sapiens, UniProt P00915); assay: biochemical; details: stopped flow CO2 hydrase assay; mean from 3 assays, errors ± 5–10%
T5 construct: made in house
Source text: as §2

hCA IX = target: T6, hCA IX (Homo sapiens, UniProt Q16790); assay: biochemical; details: stopped flow CO2 hydrase assay; mean from 3 assays, errors ± 5–10%
T6 construct: made in house
Source text: as §2

BChE = BChE (Homo sapiens, UniProt P06276); assay: Anticholinesterase assay (Ellman), BChE; assay type: biochemical; details: read-out: BChE assay % inhibition
Experimental: The inhibitory effect of novel calix[4]azacrown substituted sulphonamide Schiff bases CX(1–6) on AChE and BChE activities was determined according to the slightly modified spectrophotometric method of Ellman et al.[38]. All compounds were dissolved in DMSO to prepare stock solutions at 4 mM concentration. Aliquots of 150 µL of 100 mM sodium phosphate buffer (pH 8.0), 10 µL of sample solution and 20 µL AChE (or BChE) solution were mixed and incubated for 15 min at 25 °C, and DTNB [5,5′-Dithio-bis(2-nitro-benzoic)acid] (10 µL) is added. The reaction was then initiated by the addition of acetylthiocholine iodide (or butyrylthiocholine iodide) (10 µL). […]. Tests were carried out in triplicate. Galantamine was used as positive control.

T3 sequence (P43166 whole entry): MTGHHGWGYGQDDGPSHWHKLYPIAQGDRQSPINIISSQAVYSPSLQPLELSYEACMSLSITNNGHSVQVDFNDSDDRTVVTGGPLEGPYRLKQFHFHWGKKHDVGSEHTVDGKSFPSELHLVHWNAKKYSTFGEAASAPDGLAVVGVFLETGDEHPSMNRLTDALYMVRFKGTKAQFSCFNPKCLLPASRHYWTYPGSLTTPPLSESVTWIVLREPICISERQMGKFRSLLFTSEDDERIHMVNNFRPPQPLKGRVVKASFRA
T5 sequence (P00915 whole entry): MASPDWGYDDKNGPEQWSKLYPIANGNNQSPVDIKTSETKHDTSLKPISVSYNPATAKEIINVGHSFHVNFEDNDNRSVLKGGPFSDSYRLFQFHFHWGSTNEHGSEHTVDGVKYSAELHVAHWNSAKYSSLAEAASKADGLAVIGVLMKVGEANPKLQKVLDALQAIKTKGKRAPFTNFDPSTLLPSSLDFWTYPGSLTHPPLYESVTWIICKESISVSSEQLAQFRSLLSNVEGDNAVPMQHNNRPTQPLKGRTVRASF
T2 sequence (O43570 25-354): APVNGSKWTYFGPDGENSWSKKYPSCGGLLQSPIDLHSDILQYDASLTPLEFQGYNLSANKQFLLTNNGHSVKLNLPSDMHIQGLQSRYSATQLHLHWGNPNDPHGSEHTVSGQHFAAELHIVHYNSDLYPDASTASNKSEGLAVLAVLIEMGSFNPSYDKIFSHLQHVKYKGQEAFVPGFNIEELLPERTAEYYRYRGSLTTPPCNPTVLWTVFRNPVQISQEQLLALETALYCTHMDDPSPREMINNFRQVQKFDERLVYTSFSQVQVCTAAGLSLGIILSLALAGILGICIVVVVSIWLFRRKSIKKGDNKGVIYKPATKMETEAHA
T4 sequence (P22748 19-312): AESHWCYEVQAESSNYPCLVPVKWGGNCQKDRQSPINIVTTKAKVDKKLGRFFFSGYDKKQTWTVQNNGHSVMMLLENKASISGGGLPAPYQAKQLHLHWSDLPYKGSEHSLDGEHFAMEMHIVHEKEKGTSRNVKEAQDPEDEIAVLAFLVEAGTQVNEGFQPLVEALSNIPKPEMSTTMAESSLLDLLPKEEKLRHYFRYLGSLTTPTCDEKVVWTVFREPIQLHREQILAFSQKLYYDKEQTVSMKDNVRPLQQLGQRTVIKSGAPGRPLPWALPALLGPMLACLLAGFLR
Chain of BChE (P06276 29-602): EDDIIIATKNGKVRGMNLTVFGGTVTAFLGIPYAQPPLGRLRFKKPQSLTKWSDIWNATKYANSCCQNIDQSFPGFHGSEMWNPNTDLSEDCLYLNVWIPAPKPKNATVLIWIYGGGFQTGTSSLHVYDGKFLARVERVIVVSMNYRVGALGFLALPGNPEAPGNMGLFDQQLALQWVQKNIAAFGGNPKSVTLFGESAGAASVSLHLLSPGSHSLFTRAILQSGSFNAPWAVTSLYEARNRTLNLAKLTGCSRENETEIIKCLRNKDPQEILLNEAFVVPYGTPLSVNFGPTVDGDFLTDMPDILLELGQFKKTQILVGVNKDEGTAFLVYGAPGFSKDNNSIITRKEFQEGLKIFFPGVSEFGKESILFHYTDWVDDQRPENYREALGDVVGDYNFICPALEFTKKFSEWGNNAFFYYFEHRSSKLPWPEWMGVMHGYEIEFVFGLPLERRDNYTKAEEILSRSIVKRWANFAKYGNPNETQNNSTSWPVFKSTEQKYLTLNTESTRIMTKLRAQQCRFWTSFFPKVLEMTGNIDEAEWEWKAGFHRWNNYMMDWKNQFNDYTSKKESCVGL

COc1ccc(O)c(C(C)(C)C)c1 [BHA, reference compound]
IC50 [1]: 7.88 ± 0.2 µM
IC50 [2]: 17.59 ± 0.1 µM

Cc1cc(C(C)(C)C)c(O)c(C(C)(C)C)c1 [BHT, reference compound]
IC50 [1]: 58.86 ± 0.5 µM
IC50 [2]: 13.2 ± 0.27 µM

CC(C)(C)c1cc2c3c(c1)Cc1cc(C=Nc4ccc(S(N)(=O)=O)cc4)cc(c1O)Cc1cc(C(C)(C)C)cc(c1OCC(=O)NCCNC(=O)CO3)Cc1cc(C=Nc3ccc(S(N)(=O)=O)cc3)cc(c1O)C2 [CX-1]
IC50 [1]: > 1000 µM
IC50 [2]: 769.97 ± 0.22 µM
Ki (hCA II): 0.82 µM
Ki (hCA XII): 0.27 µM
IC50 (Metal chelating activity): > 1000 µM
Tyrosinase activity % inhibition (Tyrosinase from mushroom): 24.46 ± 0.53%
Ki (hCA VII): 1.21 µM
Ki (hCA IV): 4.36 µM
Ki (hCA I): 5.55 µM
Ki (hCA IX): 0.15 µM

Cc1cc(NS(=O)(=O)c2ccc(/N=C/c3cc4c(O)c(c3)Cc3cc(C(C)(C)C)cc5c3OCC(=O)NCCNC(=O)COc3c(cc(C(C)(C)C)cc3Cc3cc(/C=N/c6ccc(S(=O)(=O)Nc7cc(C)on7)cc6)cc(c3O)C5)C4)cc2)no1 [CX-2]
IC50 [1]: > 1000 µM
IC50 [2]: > 1000 µM
Ki (hCA II): > 100 µM
Ki (hCA XII): > 100 µM
IC50 (Metal chelating activity): > 1000 µM
Tyrosinase activity % inhibition (Tyrosinase from mushroom): 19.55 ± 0.43%
Ki (hCA VII): > 100 µM
Ki (hCA IV): > 100 µM
Ki (hCA I): > 100 µM
Ki (hCA IX): 67.6 µM

CC(C)(C)c1cc2c3c(c1)Cc1cc(C=Nc4ccc(S(=O)(=O)Nc5ncccn5)cc4)cc(c1O)Cc1cc(C(C)(C)C)cc(c1OCC(=O)NCCNC(=O)CO3)Cc1cc(C=Nc3ccc(S(=O)(=O)Nc4ncccn4)cc3)cc(c1O)C2 [CX-3]
IC50 [1]: > 1000 µM
IC50 [2]: 121 ± 0.95 µM
Ki (hCA II): > 100 µM
Ki (hCA XII): 10.2 µM
IC50 (Metal chelating activity): > 1000 µM
Tyrosinase activity % inhibition (Tyrosinase from mushroom): 35.52 ± 0.82%
Ki (hCA VII): > 100 µM
Ki (hCA IV): > 100 µM
Ki (hCA I): > 100 µM
Ki (hCA IX): 46 µM

CC(C)(C)c1cc2c3c(c1)Cc1cc(C=Nc4ccc(S(=O)(=O)Nc5nc6ccccc6s5)cc4)cc(c1O)Cc1cc(C(C)(C)C)cc(c1OCC(=O)NCCNC(=O)CO3)Cc1cc(C=Nc3ccc(S(=O)(=O)Nc4nc5ccccc5s4)cc3)cc(c1O)C2 [CX-4]
IC50 [1]: 520.3 ± 0.89 µM
IC50 [2]: > 1000 µM
Ki (hCA II): > 100 µM
Ki (hCA XII): > 100 µM
IC50 (Metal chelating activity): > 1000 µM
Tyrosinase activity % inhibition (Tyrosinase from mushroom): 16.48 ± 0.21%
Ki (hCA VII): > 100 µM
Ki (hCA IV): > 100 µM
Ki (hCA I): > 100 µM
Ki (hCA IX): > 100 µM

Cc1ccc(S(=O)(=O)NN=Cc2cc3c(O)c(c2)Cc2cc(C(C)(C)C)cc4c2OCC(=O)NCCNC(=O)COc2c(cc(C(C)(C)C)cc2Cc2cc(C=NNS(=O)(=O)c5ccc(C)cc5)cc(c2O)C4)C3)cc1 [CX-5]
IC50 [1]: 16.8 ± 0.85 µM
IC50 [2]: 9.79 ± 0.09 µM
Ki (hCA II): > 100 µM
Ki (hCA XII): > 100 µM
IC50 (Metal chelating activity): > 1000 µM
Tyrosinase activity % inhibition (Tyrosinase from mushroom): no activity
Ki (hCA VII): > 100 µM
Ki (hCA IV): > 100 µM
Ki (hCA I): > 100 µM
Ki (hCA IX): > 100 µM

CC(=O)Nc1ccc(S(=O)(=O)NN=Cc2cc3c(O)c(c2)Cc2cc(C(C)(C)C)cc4c2OCC(=O)NCCNC(=O)COc2c(cc(C(C)(C)C)cc2Cc2cc(C=NNS(=O)(=O)c5ccc(NC(C)=O)cc5)cc(c2O)C4)C3)cc1 [CX-6]
inhibition at 200 µM (BChE; at 200 µM): 35.4 ± 0.9%
IC50 [1]: 9.02 ± 0.05 µM
IC50 [2]: 7.74 ± 0.04 µM
Ki (hCA II): > 100 µM
Ki (hCA XII): > 100 µM
IC50 (Metal chelating activity): > 1000 µM
Tyrosinase activity % inhibition (Tyrosinase from mushroom): 28.15 ± 0.74%
Ki (hCA VII): > 100 µM
Ki (hCA IV): > 100 µM
Ki (hCA I): > 100 µM
Ki (hCA IX): 64.6 µM

O=C(O)CN(CCN(CC(=O)O)CC(=O)O)CC(=O)O [EDTA, reference compound]
IC50 (Metal chelating activity): 26.82 ± 0.1 µM

COc1ccc2c3c1O[C@H]1C[C@@H](O)C=C[C@@]31CCN(C)C2 [Galantamine, reference compound]
inhibition at 200 µM (BChE): 76.5 ± 1.28%

O=c1cc(CO)occ1O [Kojik acid, kojic acid, reference compound]
Tyrosinase activity % inhibition (Tyrosinase from mushroom): 95.26 ± 0.23%
